Measurements reported in US20040009599A1, “Antisense modulation of cellular inhibitor of apoptosis-1 expression” (priority 1998, published 2004).
Strand notation (5' to 3'): a small letter for the sugar, then the base; units joined by * are phosphorothioate-linked, units joined directly phosphodiester-linked; [ ] holds rarer units or linkages, { } end groups; capitals alone tell only the bases. d = 2'-deoxy (DNA)

What follows are substances tested on human Cellular Inhibitor of Apoptosis-1 RNA (assay: Inhibition of Cellular Inhibitor of Apoptosis-1 mRNA levels by quantitative real-time PCR after oligonucleotide treatment of cells). Conditions: phosphorothioate oligodeoxynucleotides; oligonucleotide at final concentration of 150 nM with LIPOFECTIN; real-time PCR; averages from three experiments.
Format: cell-based
Experimental: Cells were harvested 16 hours after oligonucleotide treatment.
Poly(A)+ mRNA was isolated according to Miura et al., Clin. Chem., 1996, 42, 1758-1764. Other methods for poly(A)+ mRNA isolation are taught in, for example, Ausubel, F. M. et al., Current Protocols in Molecular Biology, Volume 1, pp. 4.5.1-4.5.3, John Wiley & Sons, Inc., 1993. […] 60 μL lysis buffer (10 mM Tris-HCl, pH 7.6, 1 mM EDTA, 0.5 M NaCl, 0.5% NP-40, 20 mM vanadyl-ribonucleoside complex) was added to each well, the plate was gently agitated and then incubated at room temperature for five minutes. 55 μL of lysate was transferred to Oligo d(T) coated 96-well plates (AGCT Inc., Irvine Calif.). Plates were incubated for 60 minutes at room temperature, washed 3 times with 200 μL of wash buffer (10 mM Tris-HCl pH 7.6, 1 mM EDTA, 0.3 M NaCl). After the final wash, the plate was blotted on paper towels to remove excess wash buffer and then air-dried for 5 minutes. 60 μL of elution buffer (5 mM Tris-HCl pH 7.6), preheated to 70° C. was added to each well, the plate was incubated on a 90° C. hot plate for 5 minutes, and the eluate was then transferred to a fresh 96-well plate.
Cellular Inhibitor of Apoptosis-1 probes and primers were designed to hybridize to the human Cellular Inhibitor of Apoptosis-1 sequence, using published sequence information (GenBank accession number U37547, incorporated herein as SEQ ID NO:1).
For Cellular Inhibitor of Apoptosis-1 the PCR primers were: […]
Target sites are indicated by nucleotide numbers, as given in the sequence source reference (Genbank accession no. U37547), to which the oligonucleotide binds. All compounds in Table 1 are oligodeoxynucleotides with phosphorothioate backbones (internucleoside linkages) throughout. […] Data are averages from three experiments. If present, “N.D.” indicates “no data”.
For “ISIS 23345: phosphorothioate oligodeoxynucleotide aggtggatgcacttctga, 5′ UTR target site 858 (antisense dA*dG*dG*dT*dG*dG*dA*dT*dG*dC*dA*dC*dT*dT*dC*dT*dG*dA)”, the “% Inhibition of Cellular Inhibitor of Apoptosis-1 mRNA levels” value (from here on “% Inhibition”) was 0%.
“ISIS 23346: phosphorothioate oligodeoxynucleotide ggtaacctaagtgctatt, 5′ UTR target site 915 (antisense dG*dG*dT*dA*dA*dC*dC*dT*dA*dA*dG*dT*dG*dC*dT*dA*dT*dT)” was tested, and the “% Inhibition” value was 0%.
“ISIS 23347: phosphorothioate oligodeoxynucleotide tcaggtaggatgagtatc, 5′ UTR target site 994 (antisense dT*dC*dA*dG*dG*dT*dA*dG*dG*dA*dT*dG*dA*dG*dT*dA*dT*dC)” was tested, and the “% Inhibition” value was 11%.
In the case of “ISIS 23348: phosphorothioate oligodeoxynucleotide tttcttcacatgaactaa, 5′ UTR target site 1097 (antisense dT*dT*dT*dC*dT*dT*dC*dA*dC*dA*dT*dG*dA*dA*dC*dT*dA*dA)”, the “% Inhibition” value is reported as 0%.
In the case of “ISIS 23349: phosphorothioate oligodeoxynucleotide acctgggaaaagtctttg, Coding target site 1178 (antisense dA*dC*dC*dT*dG*dG*dG*dA*dA*dA*dA*dG*dT*dC*dT*dT*dT*dG)”, the “% Inhibition” value is reported as 0%.
“ISIS 23350: phosphorothioate oligodeoxynucleotide caatctgacaagatcgtg, Coding target site 1234 (antisense dC*dA*dA*dT*dC*dT*dG*dA*dC*dA*dA*dG*dA*dT*dC*dG*dT*dG)” was tested, and the “% Inhibition” value was 0%.
With “ISIS 23351: phosphorothioate oligodeoxynucleotide tagagttcacaggaaaag, Coding target site 1285 (antisense dT*dA*dG*dA*dG*dT*dT*dC*dA*dC*dA*dG*dG*dA*dA*dA*dA*dG)” the “% Inhibition” value was 0%.
For “ISIS 23352: phosphorothioate oligodeoxynucleotide ccagattctgaataaagc, Coding target site 1491 (antisense dC*dC*dA*dG*dA*dT*dT*dC*dT*dG*dA*dA*dT*dA*dA*dA*dG*dC)”, the “% Inhibition” value was 0%.
In the case of “ISIS 23353: phosphorothioate oligodeoxynucleotide tttctcattggagacgta, Coding target site 1540 (antisense dT*dT*dT*dC*dT*dC*dA*dT*dT*dG*dG*dA*dG*dA*dC*dG*dT*dA)”, the “% Inhibition” value is reported as 32%.
“ISIS 23354: phosphorothioate oligodeoxynucleotide ccaaggtgggagataatg, Coding target site 1572 (antisense dC*dC*dA*dA*dG*dG*dT*dG*dG*dG*dA*dG*dA*dT*dA*dA*dT*dG)” was tested, and the “% Inhibition” value was 3%.
With “ISIS 23355: phosphorothioate oligodeoxynucleotide gagtaagaaccactgaac, Coding target site 1603 (antisense dG*dA*dG*dT*dA*dA*dG*dA*dA*dC*dC*dA*dC*dT*dG*dA*dA*dC)” the “% Inhibition” value was 0%.
“ISIS 23356: phosphorothioate oligodeoxynucleotide tagaattaagagggtttg, Coding target site 1632 (antisense dT*dA*dG*dA*dA*dT*dT*dA*dA*dG*dA*dG*dG*dG*dT*dT*dT*dG)” was tested, and the “% Inhibition” value was 0%.
For “ISIS 23357: phosphorothioate oligodeoxynucleotide tggtaggtaagaaatctg, Coding target site 1717 (antisense dT*dG*dG*dT*dA*dG*dG*dT*dA*dA*dG*dA*dA*dA*dT*dC*dT*dG)”, the “% Inhibition” value was 0%.
“ISIS 23358: phosphorothioate oligodeoxynucleotide ttcccagttactgagctt, Coding target site 1835 (antisense dT*dT*dC*dC*dC*dA*dG*dT*dT*dA*dC*dT*dG*dA*dG*dC*dT*dT)” was tested, and the “% Inhibition” value was 78%.
“ISIS 23359: phosphorothioate oligodeoxynucleotide ctcagatttgaaatgcta, Coding target site 1936 (antisense dC*dT*dC*dA*dG*dA*dT*dT*dT*dG*dA*dA*dA*dT*dG*dC*dT*dA)” was tested, and the “% Inhibition” value was 0%.
“ISIS 23360: phosphorothioate oligodeoxynucleotide ttcccaacacctcaagcc, Coding target site 2093 (antisense dT*dT*dC*dC*dC*dA*dA*dC*dA*dC*dC*dT*dC*dA*dA*dG*dC*dC)” was tested, and the “% Inhibition” value was 55%.
With “ISIS 23361: phosphorothioate oligodeoxynucleotide taccttgaatctcatcaa, Coding target site 2193 (antisense dT*dA*dC*dC*dT*dT*dG*dA*dA*dT*dC*dT*dC*dA*dT*dC*dA*dA)” the “% Inhibition” value was 0%.
With “ISIS 23362: phosphorothioate oligodeoxynucleotide ataattggtgggtcagca, Coding target site 2269 (antisense dA*dT*dA*dA*dT*dT*dG*dG*dT*dG*dG*dG*dT*dC*dA*dG*dC*dA)” the “% Inhibition” value was 0%.
“ISIS 23363: phosphorothioate oligodeoxynucleotide ttttactttgaactgttt, Coding target site 2391 (antisense dT*dT*dT*dT*dA*dC*dT*dT*dT*dG*dA*dA*dC*dT*dG*dT*dT*dT)” was tested, and the “% Inhibition” value was 0%.
“ISIS 23364: phosphorothioate oligodeoxynucleotide catttcttcagcttgttt, Coding target site 2501 (antisense dC*dA*dT*dT*dT*dC*dT*dT*dC*dA*dG*dC*dT*dT*dG*dT*dT*dT)” was tested, and the “% Inhibition” value was 0%.
With “ISIS 23365: phosphorothioate oligodeoxynucleotide tcgcttgtaaaggtatct, Coding target site 2661 (antisense dT*dC*dG*dC*dT*dT*dG*dT*dA*dA*dA*dG*dG*dT*dA*dT*dC*dT)” the “% Inhibition” value was 0%.
For “ISIS 23366: phosphorothioate oligodeoxynucleotide attcttatccacaaataa, Coding target site 2774 (antisense dA*dT*dT*dC*dT*dT*dA*dT*dC*dC*dA*dC*dA*dA*dA*dT*dA*dA)”, the “% Inhibition” value was 0%.
For “ISIS 23367: phosphorothioate oligodeoxynucleotide gaccacaaggaataaata, Coding target site 2904 (antisense dG*dA*dC*dC*dA*dC*dA*dA*dG*dG*dA*dA*dT*dA*dA*dA*dT*dA)”, the “% Inhibition” value was 0%.
In the case of “ISIS 23368: phosphorothioate oligodeoxynucleotide ttagatggcttcaagtgt, 3′ UTR target site 3071 (antisense dT*dT*dA*dG*dA*dT*dG*dG*dC*dT*dT*dC*dA*dA*dG*dT*dG*dT)”, the “% Inhibition” value is reported as 10%.
For “ISIS 23369: phosphorothioate oligodeoxynucleotide atatagttcaccaaacat, 3′ UTR target site 3222 (antisense dA*dT*dA*dT*dA*dG*dT*dT*dC*dA*dC*dC*dA*dA*dA*dC*dA*dT)”, the “% Inhibition” value was 0%.
“ISIS 23370: phosphorothioate oligodeoxynucleotide ttcctggtttccagttct, 3′ UTR target site 3355 (antisense dT*dT*dC*dC*dT*dG*dG*dT*dT*dT*dC*dC*dA*dG*dT*dT*dC*dT)” was tested, and the “% Inhibition” value was 46%.
With “ISIS 23371: phosphorothioate oligodeoxynucleotide agtgaaaagcaccaaaga, 3′ UTR target site 3407 (antisense dA*dG*dT*dG*dA*dA*dA*dA*dG*dC*dA*dC*dC*dA*dA*dA*dG*dA)” the “% Inhibition” value was 0%.

Same assay, conditions: summary of Table 1; real-time PCR of mRNA levels
In the case of “ISIS 23353: phosphorothioate oligodeoxynucleotide tttctcattggagacgta, Coding target site 1540 (antisense dT*dT*dT*dC*dT*dC*dA*dT*dT*dG*dG*dA*dG*dA*dC*dG*dT*dA)”, the “inhibition of Cellular Inhibitor of Apoptosis-1 expression” value (shortened to “inhibition … of Apoptosis-1 expression”) is reported as “at least 20%”.
“ISIS 23358: phosphorothioate oligodeoxynucleotide ttcccagttactgagctt, Coding target site 1835 (antisense dT*dT*dC*dC*dC*dA*dG*dT*dT*dA*dC*dT*dG*dA*dG*dC*dT*dT)” was tested, and the “inhibition … of Apoptosis-1 expression” value was “at least 20%”.
“ISIS 23360: phosphorothioate oligodeoxynucleotide ttcccaacacctcaagcc, Coding target site 2093 (antisense dT*dT*dC*dC*dC*dA*dA*dC*dA*dC*dC*dT*dC*dA*dA*dG*dC*dC)” was tested, and the “inhibition … of Apoptosis-1 expression” value was “at least 20%”.
In the case of “ISIS 23370: phosphorothioate oligodeoxynucleotide ttcctggtttccagttct, 3′ UTR target site 3355 (antisense dT*dT*dC*dC*dT*dG*dG*dT*dT*dT*dC*dC*dA*dG*dT*dT*dC*dT)”, the “inhibition … of Apoptosis-1 expression” value is reported as “at least 20%”.
